Results from patent publication US20070254881A1, “Pyrazole Derivative” (DAIICHI PHARMACEUTICAL CO., LTD., priority 2004, published 2007).
Like-named read-outs stand apart in the source and are kept apart here.

Tests used:
Cyclooxygenase-1 (COX-1) = target: T1, Cyclooxygenase-1 (COX-1) (Ovis aries, UniProt P05979); assay: COX-1 inhibition, COX Inhibitor Screening Assay Kit (PGF2α production, ELISA); assay type: biochemical; details: compound 50 μM
T1 construct: purchased Cayman Chemical Company 560101
T1 sequence (P05979 25-600): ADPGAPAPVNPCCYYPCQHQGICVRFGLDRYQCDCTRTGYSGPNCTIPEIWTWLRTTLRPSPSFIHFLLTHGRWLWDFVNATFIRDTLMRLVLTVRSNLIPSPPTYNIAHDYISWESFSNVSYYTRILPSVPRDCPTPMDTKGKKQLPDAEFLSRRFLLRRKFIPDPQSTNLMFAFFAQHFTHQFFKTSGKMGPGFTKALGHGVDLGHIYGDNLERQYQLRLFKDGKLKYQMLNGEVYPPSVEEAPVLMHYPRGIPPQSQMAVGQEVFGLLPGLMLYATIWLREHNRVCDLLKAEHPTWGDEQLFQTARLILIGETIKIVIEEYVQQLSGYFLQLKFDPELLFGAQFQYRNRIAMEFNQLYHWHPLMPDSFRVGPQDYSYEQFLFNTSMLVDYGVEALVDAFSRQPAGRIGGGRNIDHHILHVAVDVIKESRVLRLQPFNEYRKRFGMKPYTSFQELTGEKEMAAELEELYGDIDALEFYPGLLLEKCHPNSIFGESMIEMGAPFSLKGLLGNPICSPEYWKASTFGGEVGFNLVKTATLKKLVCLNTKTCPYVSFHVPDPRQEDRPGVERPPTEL
Description: (§1) For the measurement of the inhibitory activity of the compounds obtained in the Examples against COX-1 and COX-2, a COX Inhibitor Screening Assay Kit manufactured by Cayman Chemical Company (Catalog Nos. 560101 and 560121) was used.
(§2) Before starting the measurement, a reaction buffer, heme, arachidonic acid, SnCl2, EIA buffer, a washing buffer, prostaglandin (PG)-screening EIA standard solution, PG-screening acetylcholinesterase (AchE), a tracer […], and PG-screening EIA antiserum were provided.
A reaction solution containing a compound of the Examples (50 μM) and COX-1, or a reaction solution containing a compound of the Examples (300 μM) and COX-2 was allowed to stand at 37° C. for 10 minutes, then 10 μl of arachidonic acid was added thereto, and the resultant mixture was allowed to stand at 37° C. for 2 minutes. After the reaction, 50 μl of 1 N hydrochloric acid was added to the reaction mixture to stop the reaction, and 100 μl of a SnCl2 solution was added thereto. The resultant mixture was allowed to stand at room temperature for 5 minutes.
50 μl of antiserum (rabbit anti-PGF2α antibody) was added to each well of a 96-well plate coated with mouse anti-rabbit IgG. Then, 50 μl of a solution prepared by diluting the reaction solution for PGF2α production to 2000-folds, and 50 μl of an AchE tracer were added sequentially to the wells, and the plate was kept at room temperature for 18 hours. Each well washed 5 times with the washing buffer to remove excessive AchE tracer, and then 200 μl of Ellman reagent was added to each well. The plate was kept in the dark room for 60 minutes, and then, absorbance at 405 nm was measured.
A standard curve was produced using a PG-screening EIA standard solution, and the amount of PGF2α production was determined from the absorbance obtained as described above. The COX-1 inhibition rate at 50 μM of the compound of the Examples, and the COX-2 inhibition rate at 300 μM of the compound of the Examples were calculated.

[1] = test system: collagen-induced platelet aggregation; assay: Platelet aggregation suppressing effect (collagen-induced aggregation in platelet rich plasma); assay type: cell-based; details: human PRP, 37° C., collagen as inducer, read-out: Inhibitory effect of collagen-induced platelet aggregation IC50
Experimental: Human blood was collected using 3.13% sodium citrate in a volume 1/10 of the blood volume, as an anticoagulant. The collected blood was centrifuged at 180 g for 10 minutes to separate platelet rich plasma (PRP) from the blood. After collecting the PRP fraction in the upper layer, the lower layer was further centrifuged at 1600 g for 10 minutes to fractionate platelet poor plasma (PPP) in the upper layer. One μl of a solution of a compound obtained in the Examples was added to 200 μl of PRP, and the mixture was allowed to stand at 37° C. for 2 minutes. Subsequently, 2 μl of collagen was added thereto, so as to induce platelet aggregation. The platelet aggregation rate was measured using PAM-12C(SSR Engineering, Inc.).

Cyclooxygenase-2 (COX-2) = target: T2, Cyclooxygenase-2 (COX-2) (Homo sapiens, UniProt P35354); assay: COX-2 inhibition, COX Inhibitor Screening Assay Kit (PGF2α production, ELISA); assay type: biochemical; details: compound 300 μM
T2 construct: purchased Cayman Chemical Company 560121
T2 sequence (P35354 18-604): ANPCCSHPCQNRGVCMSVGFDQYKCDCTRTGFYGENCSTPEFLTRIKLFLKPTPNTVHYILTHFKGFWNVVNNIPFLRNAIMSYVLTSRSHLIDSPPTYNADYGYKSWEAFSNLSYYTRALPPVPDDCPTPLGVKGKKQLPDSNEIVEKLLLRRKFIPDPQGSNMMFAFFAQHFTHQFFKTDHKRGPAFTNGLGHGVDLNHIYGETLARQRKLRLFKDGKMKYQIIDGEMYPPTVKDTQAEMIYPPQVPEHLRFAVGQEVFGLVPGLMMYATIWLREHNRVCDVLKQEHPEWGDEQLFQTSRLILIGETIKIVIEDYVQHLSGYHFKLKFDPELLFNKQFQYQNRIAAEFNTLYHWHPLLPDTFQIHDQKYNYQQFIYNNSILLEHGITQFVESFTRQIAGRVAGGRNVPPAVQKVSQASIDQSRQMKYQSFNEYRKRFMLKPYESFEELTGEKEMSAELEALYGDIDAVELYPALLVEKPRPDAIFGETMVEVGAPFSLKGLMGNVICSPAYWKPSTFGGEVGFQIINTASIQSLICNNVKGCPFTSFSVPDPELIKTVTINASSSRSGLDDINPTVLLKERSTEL
Description: as §1, §2
A reaction solution containing a compound of the Examples (50 μM) and COX-1, or a reaction solution containing a compound of the Examples (300 μM) and COX-2 was allowed to stand at 37° C. for 10 minutes, then 10 μl of arachidonic acid was added thereto, and the resultant mixture was allowed to stand at 37° C. for 2 minutes. […]
50 μl of antiserum (rabbit anti-PGF2α antibody) was added to each well of a 96-well plate coated with mouse anti-rabbit IgG. […] The plate was kept in the dark room for 60 minutes, and then, absorbance at 405 nm was measured.
A standard curve was produced using a PG-screening EIA standard solution, and the amount of PGF2α production was determined from the absorbance obtained as described above. […]

[2] = test system: collagen-induced platelet aggregation; details: background art, cited from earlier work

Compound	COX-1 inhibitory action at 50 μM (% inhibition) (Cyclooxygenase-1 (COX-1))	IC50 [1] [nM]	COX-2 inhibitory action at 300 μM (% inhibition) (Cyclooxygenase-2 (COX-2))	IC50 ([2]; read-out: IC50 value against collagen-induced platelet aggregation) [nM]	platelet aggregation inhibitory action compared with inhibitory activity against COX-2 [2]
COc1ccc(-n2nc(C(=O)N3CCCC(OC)C3)cc2-c2ccccn2)cn1 (centres unmarked) [Example 34, 1-[1-(6-Methoxy-3-pyridyl)-5-(2-pyridyl)-1H-pyrazole-3-carbonyl]-3-methoxypiperidine]	−18.4	63			
COc1ccc(-n2nc(C(=O)N3CCN(C)C(=O)C3)cc2-c2ccn(C)n2)cn1 [Example 36, 1-[1-(6-Methoxy-3-pyridyl)-5 (1-methyl-1H-pyrazol-3-yl)-1H-pyrazole-3-carbonyl]-4-methyl-3-oxopiperazine]	1.2	370			
COc1ccc(-n2nc(C(=O)N3CCOCC3)cc2-c2cc[nH]c2)nn1 [Example 41, 1-[1-(6-Methoxy-3-pyridazinyl)-5-(1H-pyrrol-3-yl)-1H-pyrazole-3-carbonyl]morpholine]	−21.3	170			
COc1ccc(-n2nc(C(=O)N3CCC(OC)CC3)cc2-c2cn(C)cn2)cn1 [Example 73, 1-[1-(6-Methoxy-3-pyridyl)-5-(1-methyl-1H-imidazol-4-yl)-1H-pyrazole-3-carbonyl]-4-methoxypiperidine]	5.9	150	15.5		
COc1ccc(-n2nc(C(=O)N3CCOC[C@@H]3C)cc2-c2ccccn2)nn1 [Example 105, (+)(3S)-4-[1-(6-Methoxypyridazin-3-yl)-5-(2-pyridyl)-1H-pyrazole-3-carbonyl]-3-methylmorpholine]	−9.6	440			
COc1ccc(-n2nc(C(=O)N3CCOC[C@H]3C)cc2-c2ccccn2)nn1 [Example 107, (−)(3R)-4-[1-(6-Methoxypyridazin-3-yl)-5-(2-pyridyl)-1H-pyrazole-3-carbonyl]-3-methylmorpholine]	−3.9	430			
COc1ccc(-n2nc(C(=O)N3CCOCC3)cc2-c2cnn(C)c2)cn1 [Example 115, 4-[1-(6-Methoxy-3-pyridyl)-5-(1-methyl-1H-pyrazol-4-yl)-1H-pyrazole-3-carbonyl]morpholine]	−21.2	110	23.4		
COc1ccc(-n2nc(C(=O)N3CCOCC3)cc2-c2cscn2)cn1 [Example 118, 4-[1-(6-Methoxy-3-pyridyl)-5-(thiazol-4-yl)-1H-pyrazole-3-carbonyl]morpholine]	−12.7	79			
COc1ccc(-n2nc(C(=O)N3CCC(OC)CC3)cc2-c2cnn(C)c2)cn1 [Example 119, 1-[1-(6-Methoxy-3-pyridyl)-5-(1-methyl-1H-pyrazol-4-yl)-1H-pyrazole-3-carbonyl]-4-methoxypiperidine]	13.0	160			
COc1ccc(-n2nc(C(=O)N3CCN(C)C(=O)C3)cc2-c2cnn(C)c2)cn1 [Example 121, 1-[1-(6-Methoxy-3-pyridyl)-5-(1-methyl-1H-pyrazol-4-yl)-1H-pyrazole-3-carbonyl]-4-methyl-3-oxopiperazine]	−0.7	710			
COc1ccc(-n2nc(C(=O)N3CCN(C)C(=O)C3)cc2-c2ccn(C)c2)nn1 [Example 124, 1-[1-(6-Methoxy-3-pyridazinyl)-5-(1-methyl-1H-pyrrol-3-yl)-1H-pyrazole-3-carbonyl]-4-methyl-3-oxopiperazine]	8.3	440			
COc1ccc(-n2nc(C(=O)N3CCN(C)C(=O)C3)cc2-c2cscn2)cn1 [Example 126, 1-[1-(6-Methoxy-3-pyridyl)-5-(thiazol-4-yl)-1H-pyrazole-3-carbonyl]-4-methyl-3-oxopiperazine]	−6.4	360			
COc1ccc(-n2nc(C(=O)N3CCN(C)CC3)cc2-c2cscn2)cn1 [Example 127, 1-[1-(6-Methoxy-3-pyridyl)-5-(thiazol-4-yl)-1H-pyrazole-3-carbonyl]-4-methylpiperazine]	−21.2	230			
COc1ccc(-n2nc(C(=O)N3CCC(F)(F)CC3)cc2-c2cnn(C)c2)nn1 [Example 141, 1-[1-(6-Methoxy-3-pyridazinyl)-5-(1-methyl-1H-pyrazol-4-yl)-1H-pyrazole-3-carbonyl]-4,4-difluoropiperidine]	24.4	190			
CS(=O)(=O)c1ccc(-c2cc(C#N)nn2-c2ccc(F)cc2)cc1 [compound (A)]				5300	
COc1ccc(-c2cc(C(F)F)nn2-c2ccc(S(N)(=O)=O)cc2)cc1F [compound (B)]					not as strong as the inhibitory activity of the compound against COX-2
